# In patent US12285397B2, “Use of (s)-3-amino-4-(difluoromethylenyl) cyclopent-1-ene-1-carboxylic acid and related compounds, (1S,3S)-3-amino-4-(difluoromethylidene) cyclopentane-1-carboxylic acid and vigabatrin in the treatment of developmental disorders” (Ovid Therapeutics Inc., priority 2018, dated 2025):
# What was measured:
# Type in all cases: in vivo, mouse
# Fmr1 KO2 mice [1] = assay: Open field repetitive behavior: stereotypy count, Fmr1 KO2 mice
# Excerpt: (§1) Mutant fmr1 knockout (KO) mice recapitulate the Fragile X syndrome (FXS) phenotype and represent a preclinical model for assessment of putative drug treatments. In this study three different mice models of FXS were used: Fmr1 KO1 is the original Fmr1 knockout animal that carries an insertion in exon 5. See, e.g., Bakker C E, et al., The Dutch-Belgian Fragile X Consortium, Fmr1 knockout mice: A model to study fragile X mental retardation. Cell. 1994; 78:23-33 It is a protein null, although Fmr1 mRNA is still present. It is backcrossed to the C57/B16 strain. Subsequently, these mice were bred into different background strains, such as the FVB inbred mouse strain. Fmr1 KO2 is a null allele at Fmr1 generated by deletion of the promoter and first exon of Fmr1. See, Mientjes, E J et al., The generation of a conditional Fmr1 knock out mouse model to study Fmrp function in vivo. Neurobiology of Disease (2006) 21(3): 549-555. It is both protein and mRNA null. Backcrossed to the C57/B16 strain. Genotyping was accomplished using TransnetXY Automated Genotyping (http://www.transnetyx.com/). TRANSNETYX, INC., 8110 Cordova Rd. Suite 119, Cordova, TN 38016, USA.
# (§2) The mice were housed in plastic cages (35×30×12 cm), 5 in each and habituated to the animal facilities for at least a week before test. The room temperature (21±2° C.), relative humidity (55±5%), a 12-h light-dark cycle (lights on 7 a.m.-7 p.m.) and air exchange (16 times per h) were automatically controlled. The animals had free access to commercial food pellets and water. Testing was conducted during the light phase. Testing was conducted on Fmr1 knockout mice and their wild-type (WT) littermates. Ten mice per treatment group, 14 weeks of age, were used for behavioral experiments. Experiments were conducted in line with the requirements of the UK Animals (Scientific Procedures) Act, 1986.
# (§3) Oral dosing was performed by using 1.5-in. curved, 20-gauge, stainless steel feeding needles with a 2.25-mm ball (Braintree Scientific, Braintree, MA). Each gavage treatment was given in 0.5% methyl cellulose (Methyl Cellulose M0512, Sigma-Aldrich, St Louis, MO) used as vehicle with or without treatment compounds. The same veterinarian, blinded to the treatment groups, performed the procedure, and documented animal reactions to oral gavage. Reactions considered to indicate stress were defined as excessive struggling during gavage or abnormal behavior after gavage (labored breathing, frozen stance, exaggerated jumping, shuddering, and hunched posture).
# (§4) For experiments all mice were tested once in the same apparatus. Prior to testing, mice not in the study were placed in the apparatus for some minutes before the experiment. The apparatus was then cleaned with moist and dry tissues before testing each mouse. The aim was to create a low but constant background mouse odor for all experimental subjects. All experiments were conducted with the experimenters blind to genotype and drug treatment during all testing and data analysis. Separate investigators prepared and coded dosing solutions, allocated the mice to the study treatment groups, dosed the animals, and collected the behavioral data. Data were analyzed by one-way analysis of variance (ANOVA) followed by post-hoc comparisons where appropriate using Tukey's Multiple Comparison Test. Data are represented as the mean and standard error of the mean (SEM).
# 2. Open Field Repetitive Behaviors (stereotypies: anticlockwise circling (aka counter revolutions) (CCW) and self grooming). Fmr1 KO2 mice display the autism-like phenotypes of repetitive behaviors like CCW, self grooming and stereotypy that typically involves behaviors such as head bobbing.
# C. […]
# Fmr1 KO2 mice [2] = assay: Tests of daily living (nesting), Fmr1 KO2 mice
# Excerpt: as §1, §2, §3, §4
# 3. Tests of daily living (nesting). Species-typical behaviors offer easy ways to test for hippocampal dysfunction. The hippocampus is vital for the performance of species-typical tasks, or “activities of daily living” of mice. […]
# Fmr1 KO2 mice [3] = assay: Open field hyperactivity (locomotor activity), Fmr1 KO2 mice
# Excerpt: as §1, §2, §3, §4
# 1. […]
# Fmr1 KO1 mice = assay: Open field hyperactivity (locomotor activity), Fmr1 KO1 mice
# Excerpt: as §1, §2, §3, §4
# 1. […]
smiles,measurement,setting,value
"N[C@H]1C=C(C(=O)O)CC1=C(F)F [Compound, (S)-3-Amino-4-(difluoromethylenyl)cyclopent-1-ene-1-carboxylic acid]","Stereotypy count, WT-Veh vs. KO2-Compound: Significant?",Fmr1 KO2 mice [1]; 0.01 mg/Kg PO QD seven days,Yes
same,"Stereotypy count, WT-Veh vs. KO2-Compound: Significant?",Fmr1 KO2 mice [1]; 0.05 mg/Kg PO QD seven days,No
same,"Stereotypy count, WT-Veh vs. KO2-Compound: Summary",Fmr1 KO2 mice [1]; 0.05 mg/Kg PO QD seven days,ns
same,"Stereotypy count, WT-Veh vs. KO2-Compound: Significant?",Fmr1 KO2 mice [1]; 0.1 mg/Kg PO QD seven days,No
same,"Stereotypy count, WT-Veh vs. KO2-Compound: Summary",Fmr1 KO2 mice [1]; 0.1 mg/Kg PO QD seven days,ns
same,Effect on stereotypy counts phenotype (FIG. 4),Fmr1 KO2 mice [1]; 0.05 and 0.1 mg/Kg,reversed
same,"Nesting, WT-Veh vs. KO2-Compound: Significant?",Fmr1 KO2 mice [2]; 0.01 mg/Kg PO QD seven days,Yes
same,"Nesting, WT-Veh vs. KO2-Compound: Significant?",Fmr1 KO2 mice [2]; 0.05 mg/Kg PO QD seven days,No
same,"Nesting, WT-Veh vs. KO2-Compound: Summary",Fmr1 KO2 mice [2]; 0.05 mg/Kg PO QD seven days,ns
same,"Nesting, WT-Veh vs. KO2-Compound: Significant?",Fmr1 KO2 mice [2]; 0.1 mg/Kg PO QD seven days,No
same,"Nesting, WT-Veh vs. KO2-Compound: Summary",Fmr1 KO2 mice [2]; 0.1 mg/Kg PO QD seven days,ns
same,Effect on poorer nest building phenotype (FIG. 5),Fmr1 KO2 mice [2]; 0.05 and 0.1 mg/Kg,rescued
same,"Open field locomotor activity (total distance traveled), WT-Veh vs. KO2-Compound: Significant?",Fmr1 KO2 mice [3]; 0.01 mg/Kg PO QD seven days,Yes
same,"Open field locomotor activity (total distance traveled), WT-Veh vs. KO2-Compound: Significant?",Fmr1 KO2 mice [3]; 0.05 mg/Kg PO QD seven days,Yes
same,"Open field locomotor activity (total distance traveled), WT-Veh vs. KO2-Compound: Significant?",Fmr1 KO2 mice [3]; 0.1 mg/Kg PO QD seven days,No
same,"Open field locomotor activity (total distance traveled), WT-Veh vs. KO2-Compound: Summary",Fmr1 KO2 mice [3]; 0.1 mg/Kg PO QD seven days,ns
same,"Open field (hyperactivity, total distance traveled), WT-Veh vs. KO1-Compound: Significant?",Fmr1 KO1 mice; 0.01 mg/Kg PO QD seven days,Yes
same,"Open field (hyperactivity, total distance traveled), WT-Veh vs. KO1-Compound: Significant?",Fmr1 KO1 mice; 0.05 mg/Kg PO QD seven days,Yes
same,"Open field (hyperactivity, total distance traveled), WT-Veh vs. KO1-Compound: Significant?",Fmr1 KO1 mice; 0.1 mg/Kg PO QD seven days,No
same,"Open field (hyperactivity, total distance traveled), WT-Veh vs. KO1-Compound: Summary",Fmr1 KO1 mice; 0.1 mg/Kg PO QD seven days,ns
